From US11175204B1, “7-hydroxycoumarin-based cell-tracking reagents” (LIFE TECHNOLOGIES CORPORATION, priority 2009, dated 2021) come the findings set out here.

The test system of the assay is Human peripheral blood mononuclear cells. Briefly: Cell proliferation tracking by dye dilution, flow cytometry (Biological Application Example 1). It is filed as cell-based. The note with it: 1 μM staining; for loss of fluorescence over 24 hours: initial 24 hours after staining; for fluorescence histogram from stimulated cells / fluorescence intensity and coefficient of variation from unstimulated cells: six days after staining. On the procedure:
Human peripheral blood mononuclear cells were isolated from whole blood using a Ficoll density gradient, then washed and resuspended in phosphate buffered saline (DPBS) at a concentration of 10^6/mL. The general procedure used is as follows: • 1. Dilute 8 mL of whole blood into 8 mL of 1×PBS and mix well. • 2. Add 6 mL Ficoll-Paque Plus to a 15-mL centrifuge tube, then layer 8 mL diluted whole blood on top. • 3. Centrifuge 30 min at 400 g, then carefully remove the lymphocyte layer. • 4. Resuspend cells in 25 mL DPBS buffer in a 50-mL conical tube. • 5. Spin tube for 5 min at 200 g, pour off supernatant and resuspend in 25 mL DPBS. • 6. Repeat wash step and resuspend in 300 μL of Isolation Buffer. • 7. Count cells on cellometer; adjust cell concentration to 10^6 cells/mL
Compound 2, Compound 6, Compound 7, and Carboxyfluorescein Diacetate Succinimidyl ester (CFSE) were each dissolved in anhydrous dimethylsulfoxide to a concentration of 1 mM. Aliquots, 4-mL, of cells were then stained with 4 μL of Compound 2, Compound 6, Compound 7, or CFSE for final staining concentrations of 1 μM. Cells were incubated with agitation at room temperature for 20 minutes. Then 2 mL of heat-inactivated Fetal Bovine Serum (FBS) were added, followed by 5 more minutes of incubation. Cells were washed twice with DPBS+10% FBS and resuspended in 4 mL of OpTmizer T-Cell Expansion Buffer (GIBCO) containing 2 mM L-glutamine, and 100,000 units penicillin and 100 mg streptomycin per liter. Aliquots (1-mL) of cells stained with Compound 2, Compound 6, Compound 7, or CFSE, and a 1-ml aliquot of unstained cells were then dispensed into a 24-well polystyrene plate and incubated at 37° C. and 5% CO2 for 24 hours. One of the following four stimulus conditions were then applied individually to the cells: i) 200 ng anti-CD3 (2 μL), incubated on ice for 30 min, then transferred to culture plate and add 100 ng iL-2 per mL of culture media, ii) 5 μg/mL Concanavalin A (5 μL of a 1 mg/mL solution), iii) 75 μL CD3/CD28 T cell expander beads, or iv) no stimulus. The cells were then incubated for 72 additional hours at 37° C. and 5% CO2. Aliquots (500-μL) of cells from each treatment were analyzed immediately following staining, and at 24 hours and six days after staining.
Aliquots (500 μL) of cells were washed and resuspended in PBS, stained with mouse anti-human CD3 or CD8 R-phycoerythrin primary antibody conjugates for 15 minutes, then washed and stained with SYTOX® Red Dead Cell Stain for 5 minutes. Cells were then run through the Becton Dickinson (BD) LSRII Flow Cytometer. Fluorescence was collected using three lasers: the 405 nm excitation laser with 450/50 bandpass emission filter, the 488 nm excitation laser with 585/42 bandpass emission filter, and the 633 nm excitation laser with 660/20 bandpass emission filter. A gating strategy was employed to limit analysis to only the cells of interest. Cells were gated first on SYTOX® Red Dead Cell Stain negative (live) cells, then on R-phycoerythrin positive cells (CD3+ or CD8+ positive). […] CountBright™ Absolute Counting Beads were evaluated in each fluorescence histogram prior to each run to account for day-to-day instrument variations.
On the technique in general: A flow cytometer gives signals particle by particle.

On to `CC(=O)Oc1cc2oc(=O)c(C(=O)ON3C(=O)CCC3=O)cc2cc1Cl` [Compound 2], for which the “loss of fluorescence over 24 hours” value is on record as “very little loss of fluorescence”; the “fluorescence histogram from stimulated cells” value (shortened to “fluorescence histogram”) is listed as “distinct peaks corresponding to each generation of cells”; the “fluorescence intensity and coefficient of variation from unstimulated cells” value (“fluorescence intensity and coefficient” for short) is reported as “little change from initial staining”.

Take `CC(=O)Oc1cc2oc(=O)c(C(=O)N3CCC(C(=O)ON4C(=O)CCC4=O)CC3)cc2cc1Cl` [Compound 6]: the “loss of fluorescence over 24 hours” value is on record as “very little loss of fluorescence”; the “fluorescence histogram” value is on record as “distinct peaks corresponding to each generation of cells”; the “fluorescence intensity and coefficient” value is reported as “little change from initial staining”.

Turning to `CC(=O)OCOc1cc2oc(=O)c(C(=O)N3CCC(C(=O)ON4C(=O)CCC4=O)CC3)cc2cc1Cl` [Compound 7], the “loss of fluorescence over 24 hours” value is “very little loss of fluorescence”; the “fluorescence histogram” value is reported as “distinct peaks corresponding to each generation of cells”; the “fluorescence intensity and coefficient” value is listed as “little change from initial staining”.

In the case of “Carboxyfluorescein Diacetate Succinimidyl ester [CFSE, reference compound]”, the “loss of fluorescence over 24 hours” value was “moderate fluorescence loss”; the “fluorescence histogram” value was “distinct peaks corresponding to each generation of cells”; the “fluorescence intensity and coefficient” value is recorded as “little change from initial staining”.
